Assay results from patent US20090005348A1, “Compounds Having Cytokine Modulating Properties” (VITAL HEALTH SCIENCES PTY LTD, priority 2005, published 2009).

Tests used:
[1] = system: TNF; assay: TNF level in the plasma of hypercholesterolemic rabbits; type: in vivo, New Zealand albino rabbits; conditions: TA at 300 mg/kg feed, 2% cholesterol diet, 4 weeks
Excerpt: (§1) 47 female New Zealand albino rabbits were obtained at 4-8 weeks of age. They were divided into 7 treatment groups, which consisted of 5-10 animals per group. All the animals were placed on a vitamin E stripped diet, and all the diets contained 2% cholesterol except for the control group (which contained no cholesterol) for 4 weeks (containing the various TA or TPm treatments outlined below). [table] At the end of the treatment period the animals were sacrificed and the blood collected. The plasma was obtained from this blood and the levels of various markers of inflammation were determined and included: IL-1β, IL-6, IL-8, TNF, PAI-1, and CRP. Other markers of inflammation such as CD36 was determined from mRNA isolated from the aortas of the rabbits to determine expression levels.

[2] = system: PAI-1; assay: PAI-1 activity in the plasma of hypercholesterolemic rabbits; type: in vivo, New Zealand albino rabbits; conditions: TA at 300 mg/kg feed, 2% cholesterol diet, 4 weeks
Excerpt: as §1

[3] = system: IL-1β; assay: IL-1β level in the plasma of hypercholesterolemic rabbits; type: in vivo, New Zealand albino rabbits; conditions: TA at 300 mg/kg feed, 2% cholesterol diet, 4 weeks
Excerpt: as §1

[4] = system: T cells from old (>22 months) C57BL mice; assay: T cell proliferation ([3H] thymidine, anti-CD3/anti-CD28), old mice; type: cell-based; conditions: all the alpha-T treatments (12.5-100 μM), n=6, p<0.05, FIG. 8
Experimental: T cells from young (4 to 6 months) and old (>22 months) C57BL mice were isolated and purified from splenocytes by negative selection using Pan T cell isolation kit from Miltenyi Biotech.
The tocopherol phosphate mixture (alpha-TP) provided by Phosphagenics Limited was composed of approximately ⅔ mono-tocopheryl phosphate (MW 510.7) and ⅓ di-tocopheryl phosphate (MW 923.3), which makes the MW of the compound 598.0. Ethanol was used to dissolve the solid alpha-TP mixture to make a 107.52 mg/ml stock solution ([…]). 34 mg/ml alpha-tocopherol (alpha-T) in ethanol was used as a stock solution of alpha-T (79.06 mM). The solutions used for pre-incubation and incubation were prepared as follows: […]
After pre-incubation, the cells were stimulated (2×10^5 cells/well) in triplicate in a round bottom 96-well plate with plate-bound anti-CD3 (5 μg/ml, anti-CD3e (145-2C11), Pharmingen Cat# 553058) and soluble anti-CD28 (2 μg/ml, final concentration, anti-CD28 (37.51), Pharmingen Cat# 553294) in RPMI medium containing 5% FBS (final concentration and same concentration of vehicle, alpha-tocopherol or alpha-tocopherol phosphate used in the pre-incubation. The cells were incubated at 35° C., 5% CO2 for 64 hours, then, pulsed with 0.5 μCi of [^3H] thymidine for 8 hours. The cells were harvested onto filter paper and proliferation was quantified as the amount of [^3H] […]

## CC(=O)Oc1c(C)c(C)c2c(c1C)CCC(C)(CCC[C@H](C)CCC[C@H](C)CCCC(C)C)O2 (stereo partly shown) [TA, tocopherol acetate]
[1]
  plasma TNF: modest decreases
[2]
  plasma PAI-1 activity: modest decreases
[3]
  plasma IL-1β: modest decreases

## Cc1c(C)c2c(c(C)c1O)CC[C@@](C)(CCC[C@H](C)CCC[C@H](C)CCCC(C)C)O2 [alpha-T, alpha-tocopherol]
[4]
  T cell proliferation compared to vehicle: significant increase in proliferation
